The text below walks through data of ChEMBL document CHEMBL5537152, “Targeted Degradation of PCSK9 In Vivo by Autophagy-Tethering Compounds” (J Med Chem, 2024).

Test [1] deals with Mus musculus. Description: Synergistic antiatherosclerotic activity in hypercholesterolemic ApoE-/- mouse model assessed as decrease in plasma LDL-C level at 15 mg/kg, ip administered daily for 3 weeks. It is filed as functional. Further details: scale not given: the % may be the effect or the level left.
Test [2] relates to Mus musculus. Description: Antiatherosclerotic activity in hypercholesterolemic ApoE-/- mouse model assessed as decrease in plasma LDL-C level at 15 mg/kg/day, ip measured after 21 days relative to control. It is filed as functional. The note with it: time 21 day.

Turning to `CCC(C)(C)C(=O)O[C@H]1C[C@@H](C)C=C2C=C[C@H](C)[C@H](CC[C@@H]3C[C@@H](O)CC(=O)O3)[C@H]21` [SIMVASTATIN], in the test with Mus musculus [1], the Activity is recorded as 23.59%. The Efficacy in the test with Mus musculus [2] is reported as 23.59%.
